Measurements from paper PMC10108345, “Differentiating Inhibition Selectivity and Binding Affinity of Isocitrate Dehydrogenase 1 Variant Inhibitors” (Journal of Medicinal Chemistry, 2023).

Assays:
[1] = target: T1, wt IDH1 (Homo sapiens, UniProt O75874); assay: Absorbance turnover assay (NADPH, 340 nm), wt IDH1-catalyzed conversion of isocitrate to 2OG; assay type: biochemical; details: wt IDH1 (2 nM), isocitrate to 2OG; 100 mM tris-HCl, 10 mM MgCl2, pH 8.0; read-out: IC50/nM wt IDH1
T1 construct: made in house; host or cells: Escherichia coli BL21(DE3) pLyS
T1 sequence (O75874 whole entry): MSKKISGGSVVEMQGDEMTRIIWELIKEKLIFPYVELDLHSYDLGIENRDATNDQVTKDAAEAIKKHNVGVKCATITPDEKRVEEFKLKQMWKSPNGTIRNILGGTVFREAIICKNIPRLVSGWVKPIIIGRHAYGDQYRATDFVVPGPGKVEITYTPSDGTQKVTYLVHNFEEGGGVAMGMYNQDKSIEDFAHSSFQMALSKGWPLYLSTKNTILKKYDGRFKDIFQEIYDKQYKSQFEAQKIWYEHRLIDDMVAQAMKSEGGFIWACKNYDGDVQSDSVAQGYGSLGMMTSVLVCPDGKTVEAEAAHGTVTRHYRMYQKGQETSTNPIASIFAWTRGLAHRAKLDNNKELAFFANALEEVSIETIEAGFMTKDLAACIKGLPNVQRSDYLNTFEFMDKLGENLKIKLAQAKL
Procedure: (Figure 3, Scheme 1). […] We employed ^1H NMR (700 MHz) spectroscopy to simultaneously monitor NADPH, NADP^+, 2OG, and 2HG levels (Figure S3) in order to validate observations from the absorbance assays.
(§1) IDH1 activities were measured spectrophotometrically by monitoring changes in NADPH absorbance at 340 nm.[10] […] The difference in absorbance, ΔA340, in the linear range of the reaction profile was converted to % residual activity using a DMSO control as the 100% residual activity reference. […] Experiments were performed in (at least) triplicate. The standard assay buffer for IDH1 consists of 100 mM tris–HCl, 10 mM MgCl2, 0.005% (v/v) Tween 20, pH 8.0, 0.2 mM DTT, and 0.1 mg/mL BSA. In general, compounds [25 μL, 0.4% (v/v) DMSO] were pre-incubated with IDH1 (25 μL) for 12 min, followed by addition of DL-isocitrate/2OG (25 μL) and NADP^+/NADPH (25 μL) to initiate the reaction. The substrate/cofactor concentrations were optimized by determining KM values for substrates/cofactors as described.[10]

[2] = target: T2, IDH1 R132H (Homo sapiens, UniProt O75874, R132H); assay: Absorbance turnover assay (NADPH, 340 nm), IDH1 R132H-catalyzed conversion of 2OG to 2HG; assay type: biochemical
T2 construct: made in house; host or cells: Escherichia coli BL21(DE3) pLyS
T2 sequence (O75874 whole entry R132H): as the sequence (O75874 whole entry) above, with R132H counted along it
Procedure: as §1

[3] = target: T1, wt IDH1; assay: Differential scanning fluorimetry (DSF) thermal shift, wt IDH1; assay type: binding; details: largest change in Tm of IDH1 ([…]) with 3-100 μM inhibitor
Procedure: (§2) Thermal shift experiments were carried out using Sypro Orange and a CFX96 Touch Real-Time PCR Detection System (Bio-Rad) machine.[42] […] The standard assay buffer contains 50 mM tris–HCl at pH 7.5. Various concentrations of compounds (1% DMSO final) were mixed with IDH1 for thermal stabilization studies. […] Bio-Rad CFX Manager was used to determine the melting temperature, Tm.

[4] = target: T2, IDH1 R132H; assay: Differential scanning fluorimetry (DSF) thermal shift, IDH1 R132H; assay type: binding; details: largest change in Tm of IDH1 ([…]) with 3-100 μM inhibitor
Procedure: as §2

[5] = target: T2, IDH1 R132H; assay: Circular dichroism (CD) melting temperature, IDH1 R132H; assay type: binding; details: inhibitor 42 μM, IDH 4.2 μM (0.2 mg/mL); read-out: Δ Tm/°C by CD IDH1 R132H
Procedure: CD spectra were acquired using a Chirascan CD spectrometer (Applied Photophysics) with a Peltier temperature-control cell holder. Experiments were carried out in a 0.1 cm path length quartz cuvette at 20 °C. […] Spectra were averaged (n = 3) and smoothed (window size = 7) using the Savitzky–Golay filter. The mean residue ellipticity (MRE) was calculated according to the formula [drawing 1] where θ is the degree of ellipticity, N is the number of amino acids, c is the concentration (mol/L), and l is the path length (cm).
Measurements were conducted in 2 °C increments. The melting temperature was calculated using a Boltzmann sigmoidal model in GraphPad Prism v5.04.

[6] = target: T2, IDH1 R132H; assay: Ligand-observed 1H NMR (CPMG-edited, 700 MHz) binding, IDH1 R132H; details: line broadening, 10 μM inhibitor, 50 mM tris-D11-HCl pH 7.5
Procedure: Additional solvent presaturation was applied for 2 s. Samples contained 160 μL of 10 μM compound (0.2% DMSO) in 50 mM tris-D11-HCl, pH 7.5 in 90% H2O/10% D2O (v/v). […] 200 or 400 scans per IDH concentration were recorded, and signals corresponding to the compound were integrated and processed using TopSpin 3.6.1 software.

[7] = target: T1, wt IDH1; assay: Non-denaturing MS binding, wt IDH1
Procedure: Non-denaturing mass spectra were obtained using a quadrupole time-of-flight mass spectrometer (Synapt HD MS, Waters, Manchester, UK).[44],[45] […] Protein concentrations were measured using a Nanodrop spectrometer (Thermo Scientific NanoDrop One). Compounds were dissolved in MeOH to avoid DMSO interference with mass spectra. IDH1 (20 μL of 50 μM final) and the compound of interest (1–4% (v/v) MeOH) in 200 mM ammonium acetate at pH 7.5 were pipetted into wells of a sample plate of an automated chip-based nano-electrospray ion source (TriVersa Nanomate, Advion, Ithaka, NY, USA). Compounds were serially diluted in buffer and mixed with IDH1 diluted in buffer. The mixture was sprayed through a nozzle in a Nanomate chip at a spray voltage of 1.8–2.0 kV (spray backing gas pressure 0.8–1.0 psi, inlet pressure 3.8 mbar). […] Data collection and analyses used Waters MassLynx software. Mass spectra were calibrated externally using CsI solution. KD values were calculated using eq 2 as reported[46] at each compound concentration and are reported as an average across multiple concentrations. For inhibitors with a binding stoichiometry of two inhibitors/IDH dimer, the inhibitor-bound protein peak intensity used was a sum of first and second inhibitor-bound protein peak intensities. Data for the IDH1 dimer m/z = 20^+ charge state are shown. For clarity, only 2× NADPH bound protein peaks are annotated.

[8] = target: T2, IDH1 R132H; assay: 1H NMR (700 MHz) reaction monitoring, IDH1 R132H-catalysed conversion of 2OG to 2HG; assay type: biochemical; details: 1 μM IDH1 R132H, 20 μM compound, over […]; in words
Procedure: Nuclear magnetic resonance (NMR) reaction monitoring was performed at 298 K using a Bruker AVIII 700 MHz NMR spectrometer with a 5 mm inverse triple-carbon-inverse (TCI) cryoprobe in 5 mm tubes (Norell). Data were recorded with a relaxation delay of 2 s and 32 scans, employing a pulse sequence with water suppression (^1H excitation sculpting suppression with perfect-echo using a 2 ms Sinc selective inversion pulse). There is a time delay of 184 s between each acquired spectrum over the time-course experiment. Conversion of 2OG to 2HG catalyzed by IDH1 R132H was monitored using 500 μL of 1 μM IDH, 20 μM compound [0.4% (v/v) DMSO, 10 min pre-incubation with IDH], 10 mM MgCl2, 1.5 mM NADPH, and 1.5 mM 2OG, in 50 mM tris-D11-HCl, pH 7.5 in 90% H2O/10% D2O (v/v). Data were processed with TopSpin 3.6.1 software. Signals corresponding to NADPH, NADP^+, 2OG, and 2HG at each time point over a total of 2 to 3 h were integrated, converted to concentrations, and plotted against time. The difference in concentrations in the linear range of the reaction profile was converted to % residual activity with the DMSO control defined as the 100% residual activity reference.

- IC50 [1]: > 10000 nM
- Selectivity against IDH1 R132H over IDH1 wt ([2]; IC50 (IDH1 wt)/IC50 (IDH1 R132H)): >164
- IC50 ([2]; IDH1 R132H (30 nM), 2OG to 2HG, 100 mM tris-HCl, 10 mM MgCl2, pH 8.0): 61 nM
- Δ Tm/°C by DSF wt IDH1 [3]: 6.9 °C
- Δ Tm/°C by DSF IDH1 R132H [4]: 6.0 °C
- ΔTm at 42 µM [5]: 7.7 °C
- Kd [6]: 8.6 µM
- stoichiometry, inhibitors per IDH1 dimer, wt IDH1 ([7]; Figure S7a): 1
- Kd ([7]; IDH 50 μM, 200 mM ammonium acetate pH 7.5): 608 µM
- inhibition of IDH1 R132H catalysed conversion of 2OG to 2HG monitored by 1H NMR [8]: weaker inhibition
SMILES: Cc1ccccc1C(C(=O)NC1CCCCC1)N(C(=O)Cn1ccnc1C)c1cccc(F)c1 (stereo not shown) [AGI-5198]
